Test results reported in US10239843B2 (CANCER RESEARCH TECHNOLOGY LIMITED, priority 2014, dated 2019).
Like-named read-outs stand apart in the source and are kept apart here.

Legend:
[1] = tested on: PARG in HeLa cell line; assay: PARG cell assay (PAR chain immunofluorescence after MMS); format: cell-based; conditions: HeLa cells, MMS treatment, read-out: PARG Cell IC50
In short: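 HeLa cells were dosed with compound for 1 h, then given MMS at 50 μg/mL final for a further hour. Cells were methanol-fixed, permeabilised and stained overnight at 4° C with anti-PAR monoclonal antibody. Retained nuclear PAR chains, detected by indirect immunofluorescence, indicate PARG inhibition.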

[2] = biological target: Human Full Length PARG (Homo sapiens (Human), UniProt Q86W56); assay: PARG enzyme assay (TR-FRET); format: biochemical; conditions: read-out: PARG Biochem IC50
Chain of Human Full Length PARG (Q86W56 whole entry): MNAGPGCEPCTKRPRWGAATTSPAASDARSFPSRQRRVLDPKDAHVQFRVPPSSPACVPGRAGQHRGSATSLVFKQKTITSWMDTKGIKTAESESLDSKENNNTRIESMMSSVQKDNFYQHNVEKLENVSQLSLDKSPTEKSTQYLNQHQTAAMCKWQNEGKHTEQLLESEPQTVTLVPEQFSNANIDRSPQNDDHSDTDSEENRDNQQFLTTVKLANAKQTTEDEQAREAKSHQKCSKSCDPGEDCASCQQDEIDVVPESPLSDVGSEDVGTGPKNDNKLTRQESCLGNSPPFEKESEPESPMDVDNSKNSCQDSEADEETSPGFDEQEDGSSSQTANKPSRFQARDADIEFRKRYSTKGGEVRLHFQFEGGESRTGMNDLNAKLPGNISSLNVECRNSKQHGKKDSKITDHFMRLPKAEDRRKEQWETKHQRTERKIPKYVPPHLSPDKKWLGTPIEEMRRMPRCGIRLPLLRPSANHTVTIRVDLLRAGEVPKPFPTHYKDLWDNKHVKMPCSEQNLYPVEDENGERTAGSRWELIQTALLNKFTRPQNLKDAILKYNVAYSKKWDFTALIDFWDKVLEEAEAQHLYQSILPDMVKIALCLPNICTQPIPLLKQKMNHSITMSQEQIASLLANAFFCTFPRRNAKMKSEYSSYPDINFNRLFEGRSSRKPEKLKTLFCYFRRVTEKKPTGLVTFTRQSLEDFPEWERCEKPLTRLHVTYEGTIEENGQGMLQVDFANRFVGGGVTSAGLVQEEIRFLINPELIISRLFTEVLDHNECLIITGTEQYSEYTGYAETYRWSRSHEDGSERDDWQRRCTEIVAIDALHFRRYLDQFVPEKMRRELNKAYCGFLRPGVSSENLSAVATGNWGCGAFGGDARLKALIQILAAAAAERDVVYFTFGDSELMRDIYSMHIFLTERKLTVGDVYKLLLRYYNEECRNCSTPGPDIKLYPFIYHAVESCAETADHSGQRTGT

How did the IC50 ([1]; Homo sapiens) turn out when `CCCn1c(=O)n(Cc2cnn(C)c2)c(=O)c2cc(S(=O)(=O)NC3(CF)CC3)ccc21` [Example 597, N-[1-(Fluoromethyl)cyclopropyl]-3-[(1-methylpyrazol-4-yl)methyl]-2,4-dioxo-1-propyl-quinazoline-6-sulfonamide] was run?
Its IC50 is 86 nM.

And the IC50 [2]?
The IC50 was 100 nM.

With `Cn1cc(Cn2c(=O)c3cc(S(=O)(=O)NC4(CF)CC4)ccc3n(CC3CCOC3)c2=O)cn1` (stereo not drawn) [Example 598, N-[1-(Fluoromethyl)cyclopropyl]-3-[(1-methylpyrazol-4-yl)methyl]-2,4-dioxo-1-(tetrahydrofuran-3-ylmethyl)quinazoline-6-sulfonamide] as the compound, how does the IC50 ([1]; Homo sapiens) read?
The IC50 was 240 nM.

What about the IC50 [2] of the same compound?
The IC50 was 82 nM.

For `Cn1cc(Cn2c(=O)c3cc(S(=O)(=O)NC4(C)CC4)ccc3n(CC(F)F)c2=O)cn1` [Example 599, 1-(2,2-Difluoroethyl)-N-(1-methylcyclopropyl)-3-[(1-methylpyrazol-4-yl)methyl]-2,4-dioxo-quinazoline-6-sulfonamide], which IC50 ([1]; Homo sapiens) is on record?
Its IC50 is 93 nM.

What about the IC50 [2] of the same compound?
Its IC50 is 263 nM.

Which IC50 ([1]; Homo sapiens) does the source give for `Cn1cc(Cn2c(=O)c3cc(S(=O)(=O)NC4(CF)CC4)ccc3n(CC(F)F)c2=O)cn1` [Example 600, 1-(2,2-Difluoroethyl)-N-[1-(fluoromethyl)cyclopropyl]-3-[(1-methylpyrazol-4-yl)methyl]-2,4-dioxo-quinazoline-6-sulfonamide] here?
The IC50 was 109 nM.

What about the IC50 [2] of the same compound?
Its IC50 is 127 nM.

For `Cc1nnc(Cn2c(=O)[nH]c3ccc(S(=O)(=O)NC4(CF)CC4)cc3c2=O)s1` [Example 601, N-[1-(Fluoromethyl)cyclopropyl]-3-[(5-methyl-1,3,4-thiadiazol-2-yl)methyl]-2,4-dioxo-1H-quinazoline-6-sulfonamide], which IC50 ([1]; Homo sapiens) is on record?
Its IC50 is 13500 nM.

And the IC50 [2]?
The IC50 was 710 nM.

How did the IC50 ([1]; Homo sapiens) turn out when `Cc1cc(Cn2c(=O)c3cc(S(=O)(=O)NC4(CF)CC4)ccc3n(C(F)F)c2=O)on1` [Example 604, 1-(Difluoromethyl)-N-[1-(fluoromethyl)cyclopropyl]-3-[(3-methylisoxazol-5-yl)methyl]-2,4-dioxo-quinazoline-6-sulfonamide] was run?
Its IC50 is 295 nM.

And the IC50 [2]?
The IC50 was 788 nM.

For `Cc1cc(Cn2c(=O)c3cc(S(=O)(=O)NC4(C)CC4)ccc3n(C(F)F)c2=O)on1` [Example 605, 1-(Difluoromethyl)-N-(1-methylcyclopropyl)-3-[(3-methylisoxazol-5-yl)methyl]-2,4-dioxo-quinazoline-6-sulfonamide], which IC50 ([1]; Homo sapiens) is on record?
Its IC50 is 588 nM.

And the IC50 [2]?
The IC50 was 1370 nM.

`Cn1cc(Cn2c(=O)c3cc(S(=O)(=O)NC4(C)CC4)ccc3n(C(F)F)c2=O)cn1` [Example 606, 1-(Difluoromethyl)-N-(1-methylcyclopropyl)-3-[(1-methylpyrazol-4-yl)methyl]-2,4-dioxo-quinazoline-6-sulfonamide] was tested. Which IC50 ([1]; Homo sapiens) did it give?
Its IC50 is 248 nM.

What about the IC50 [2] of the same compound?
The IC50 was 1470 nM.

Which IC50 ([1]; Homo sapiens) does the source give for `Cn1cc(Cn2c(=O)c3cc(S(=O)(=O)NC4(CF)CC4)ccc3n(Cc3cocn3)c2=O)cn1` [Example 607, N-[1-(Fluoromethyl)cyclopropyl]-3-[(1-methylpyrazol-4-yl)methyl]-1-(oxazol-4-ylmethyl)-2,4-dioxo-quinazoline-6-sulfonamide] here?
Its IC50 is 76 nM.

And the IC50 [2]?
Its IC50 is 63 nM.

Which results are given for `Cn1cc(Cn2c(=O)c3cc(S(=O)(=O)NC4(CF)CC4)ccc3n(CC3CCCC3)c2=O)cn1` [Example 608, 1-(Cyclopentylmethyl)-N-[1-(fluoromethyl)cyclopropyl]-3-[(1-methylpyrazol-4-yl)methyl]-2,4-dioxo-quinazoline-6-sulfonamide]?
IC50 ([1]; Homo sapiens): 50 nM; IC50 [2]: 64 nM

What does the source list for `CC(C)=CCn1c(=O)n(Cc2cnn(C)c2)c(=O)c2cc(S(=O)(=O)NC3(CF)CC3)ccc21` [Example 609, N-[1-(Fluoromethyl)cyclopropyl]-1-(3-methylbut-2-enyl)-3-[(1-methylpyrazol-4-yl)methyl]-2,4-dioxo-quinazoline-6-sulfonamide]?
IC50 ([1]; Homo sapiens): 56 nM; IC50 [2]: 51 nM

`Cn1cc(Cn2c(=O)c3cc(S(=O)(=O)NC4(CF)CC4)ccc3n(Cc3ccncc3)c2=O)cn1` [Example 610, N-[1-(Fluoromethyl)cyclopropyl]-3-[(1-methylpyrazol-4-yl)methyl]-2,4-dioxo-1-(4-pyridylmethyl)quinazoline-6-sulfonamide] was tested. Which IC50 ([1]; Homo sapiens) did it give?
Its IC50 is 669 nM.

What about the IC50 [2] of the same compound?
The IC50 was 111 nM.

Which results are given for `CCN(CC)CCn1c(=O)n(Cc2cnn(C)c2)c(=O)c2cc(S(=O)(=O)NC3(CF)CC3)ccc21` [Example 611, 1-[2-(Diethylamino)ethyl]-N-[1-(fluoromethyl)cyclopropyl]-3-[(1-methylpyrazol-4-yl)methyl]-2,4-dioxo-quinazoline-6-sulfonamide]?
IC50 ([1]; Homo sapiens): 249 nM; IC50 [2]: 113 nM

How did the IC50 ([1]; Homo sapiens) turn out when `CCOCCn1c(=O)n(Cc2cnn(C)c2)c(=O)c2cc(S(=O)(=O)NC3(CF)CC3)ccc21` [Example 612] was run?
The IC50 was 178 nM.

What about the IC50 [2] of the same compound?
The IC50 was 194 nM.

Which IC50 ([1]; Homo sapiens) does the source give for `CC(C)CCn1c(=O)n(Cc2cnn(C)c2)c(=O)c2cc(S(=O)(=O)NC3(CF)CC3)ccc21` [Example 613, N-[1-(Fluoromethyl)cyclopropyl]-1-isopentyl-3-[(1-methylpyrazol-4-yl)methyl]-2,4-dioxo-quinazoline-6-sulfonamide] here?
Its IC50 is 56 nM.

And the IC50 [2]?
The IC50 was 42 nM.

Which results are given for `Cc1cc(Cn2c(=O)n(Cc3nnc(C)s3)c(=O)c3cc(S(=O)(=O)NC4(C)CC4)ccc32)n(C)n1` [Example 615, 1-[(2,5-Dimethylpyrazol-3-yl)methyl]-N-(1-methylcyclopropyl)-3-[(5-methyl-1,3,4-thiadiazol-2-yl)methyl]-2,4-dioxo-quinazoline-6-sulfonamide]?
IC50 ([1]; Homo sapiens): 274 nM; IC50 [2]: 64 nM

How did the IC50 [1] turn out when `COCCOCCn1c(=O)n(Cc2cnn(C)c2)c(=O)c2cc(S(=O)(=O)NC3(CF)CC3)ccc21` [Example 618, N-[1-(Fluoromethyl)cyclopropyl]-1-[2-(2-methoxyethoxy)ethyl]-3-[(1-methylpyrazol-4-yl)methyl]-2,4-dioxo-quinazoline-6-sulfonamide] was run?
The IC50 was 325 nM.

And the IC50 [2]?
Its IC50 is 247 nM.

Which results are given for `Cn1cc(Cn2c(=O)c3cc(S(=O)(=O)NC4(CF)CC4)ccc3n(CC3CCCO3)c2=O)cn1` (stereo not drawn) [Example 619, N-[1-(Fluoromethyl)cyclopropyl]-3-[(1-methylpyrazol-4-yl)methyl]-2,4-dioxo-1-(tetrahydrofuran-2-ylmethyl)quinazoline-6-sulfonamide]?
IC50 ([1]; Homo sapiens): 233 nM; IC50 [2]: 190 nM

`CCC(=O)Cn1c(=O)n(Cc2cnn(C)c2)c(=O)c2cc(S(=O)(=O)NC3(CF)CC3)ccc21` [Example 620, N-[1-(Fluoromethyl)cyclopropyl]-3-[(1-methylpyrazol-4-yl)methyl]-2,4-dioxo-1-(2-oxobutyl)quinazoline-6-sulfonamide] was tested. Which IC50 ([1]; Homo sapiens) did it give?
The IC50 was 238 nM.

And the IC50 [2]?
Its IC50 is 144 nM.

Which results are given for `Cn1cc(Cn2c(=O)c3cc(S(=O)(=O)NC4(C)CC4)ccc3n(CC(F)(F)F)c2=O)cn1` [Example 621, N-(1-Methylcyclopropyl)-3-[(1-methylpyrazol-4-yl)methyl]-2,4-dioxo-1-(2,2,2-trifluoroethyl)quinazoline-6-sulfonamide]?
IC50 ([1]; Homo sapiens): 135 nM; IC50 [2]: 257 nM

What does the source list for `Cc1cc(Cn2c(=O)c3cc(S(=O)(=O)NC4(CF)CC4)ccc3n(CC(F)(F)F)c2=O)on1` [Example 622, N-[1-(Fluoromethyl)cyclopropyl]-3-[(3-methylisoxazol-5-yl)methyl]-2,4-dioxo-1-(2,2,2-trifluoroethyl)quinazoline-6-sulfonamide]?
IC50 ([1]; Homo sapiens): 228 nM; IC50 [2]: 355 nM
